# Results taken from ChEMBL document CHEMBL3734705, “Synthesis and in vitro cytotoxicity of novel C-12 substituted-14-deoxy-andrographolide derivatives as potent anti-cancer agents” (2015).
# Legend:
# [1] = Cytotoxicity against human MOLT4 cells assessed as growth level at 10 uM after 48 hrs by SRB assay; type: functional, MOLT-4
# [2] = Cytotoxicity against human RPMI8226 cells assessed as growth level at 10 uM after 48 hrs by SRB assay; type: functional, RPMI-8226
# [3] = system: SR; assay: Cytotoxicity against human SR cells assessed as growth level at 10 uM after 48 hrs by SRB assay; type: functional
# [4] = system: A549; assay: Cytotoxicity against human A549 cells assessed as growth level at 10 uM after 48 hrs by SRB assay; type: functional
# [5] = system: EKVX; assay: Cytotoxicity against human EKVX cells assessed as growth level at 10 uM after 48 hrs by SRB assay; type: functional
# [6] = Cytotoxicity against human HOP62 cells assessed as growth level at 10 uM after 48 hrs by SRB assay; type: functional, HOP-62
# [7] = Cytotoxicity against human HOP92 cells assessed as growth level at 10 uM after 48 hrs by SRB assay; type: functional, HOP-92
# [8] = system: NCI-H226; assay: Cytotoxicity against human NCI-H226 cells assessed as growth level at 10 uM after 48 hrs by SRB assay; type: functional
# [9] = system: NCI-H23; assay: Cytotoxicity against human NCI-H23 cells assessed as growth level at 10 uM after 48 hrs by SRB assay; type: functional
# [10] = system: NCI-H322M; assay: Cytotoxicity against human NCI-H322M cells assessed as growth level at 10 uM after 48 hrs by SRB assay; type: functional
# [11] = system: NCI-H460; assay: Cytotoxicity against human NCI-H460 cells assessed as growth level at 10 uM after 48 hrs by SRB assay; type: functional
# [12] = system: NCI-H522; assay: Cytotoxicity against human NCI-H522 cells assessed as growth level at 10 uM after 48 hrs by SRB assay; type: functional
# [13] = Cytotoxicity against human COLO205 cells assessed as growth level at 10 uM after 48 hrs by SRB assay; type: functional, COLO 205
# [14] = Cytotoxicity against human HCC2998 cells assessed as growth level at 10 uM after 48 hrs by SRB assay; type: functional, HCC 2998
# [15] = Cytotoxicity against human HCT116 cells assessed as growth level at 10 uM after 48 hrs by SRB assay; type: functional, HCT-116
# [16] = Cytotoxicity against human HCT15 cells assessed as growth level at 10 uM after 48 hrs by SRB assay; type: functional, HCT-15
# [17] = system: HT-29; assay: Cytotoxicity against human HT-29 cells assessed as growth level at 10 uM after 48 hrs by SRB assay; type: functional
# [18] = system: KM12; assay: Cytotoxicity against human KM12 cells assessed as growth level at 10 uM after 48 hrs by SRB assay; type: functional
# [19] = Cytotoxicity against human SW620 cells assessed as growth level at 10 uM after 48 hrs by SRB assay; type: functional, SW-620
# [20] = Cytotoxicity against human SF268 cells assessed as growth level at 10 uM after 48 hrs by SRB assay; type: functional, SF-268
# [21] = Cytotoxicity against human SF295 cells assessed as growth level at 10 uM after 48 hrs by SRB assay; type: functional, SF-295
# [22] = Cytotoxicity against human SF539 cells assessed as growth level at 10 uM after 48 hrs by SRB assay; type: functional, SF-539
# [23] = Cytotoxicity against human SNB19 cells assessed as growth level at 10 uM after 48 hrs by SRB assay; type: functional, SNB-19
# [24] = Cytotoxicity against human SNB75 cells assessed as growth level at 10 uM after 48 hrs by SRB assay; type: functional, SNB-75
# [25] = system: U-251; assay: Cytotoxicity against human U251 cells assessed as growth level at 10 uM after 48 hrs by SRB assay; type: functional
# [26] = Cytotoxicity against human LOXIMVI cells assessed as growth level at 10 uM after 48 hrs by SRB assay; type: functional, LOX IMVI
# [27] = system: Malme-3M; assay: Cytotoxicity against human MALME-3M cells assessed as growth level at 10 uM after 48 hrs by SRB assay; type: functional
# [28] = system: M14; assay: Cytotoxicity against human M14 cells assessed as growth level at 10 uM after 48 hrs by SRB assay; type: functional
# [29] = system: MDA-MB-435; assay: Cytotoxicity against human MDA-MB-435 cells assessed as growth level at 10 uM after 48 hrs by SRB assay; type: functional
# [30] = system: SK-MEL-2; assay: Cytotoxicity against human SK-MEL-2 cells assessed as growth level at 10 uM after 48 hrs by SRB assay; type: functional
# [31] = system: SK-MEL-28; assay: Cytotoxicity against human SK-MEL-28 cells assessed as growth level at 10 uM after 48 hrs by SRB assay; type: functional
# [32] = system: SK-MEL-5; assay: Cytotoxicity against human SK-MEL-5 cells assessed as growth level at 10 uM after 48 hrs by SRB assay; type: functional
# [33] = Cytotoxicity against human UACC257 cells assessed as growth level at 10 uM after 48 hrs by SRB assay; type: functional, UACC-257
# [34] = Cytotoxicity against human UACC62 cells assessed as growth level at 10 uM after 48 hrs by SRB assay; type: functional, UACC-62
# [35] = Cytotoxicity against human IGROV1 cells assessed as growth level at 10 uM after 48 hrs by SRB assay; type: functional, IGROV-1
# [36] = Cytotoxicity against human OVCAR3 cells assessed as growth level at 10 uM after 48 hrs by SRB assay; type: functional, OVCAR-3
# [37] = Cytotoxicity against human OVCAR4 cells assessed as growth level at 10 uM after 48 hrs by SRB assay; type: functional, OVCAR-4
# [38] = Cytotoxicity against human OVCAR5 cells assessed as growth level at 10 uM after 48 hrs by SRB assay; type: functional, OVCAR-5
# [39] = Cytotoxicity against human OVCAR8 cells assessed as growth level at 10 uM after 48 hrs by SRB assay; type: functional, OVCAR-8
# [40] = Cytotoxicity against human NCI-ADR-RES cells assessed as growth level at 10 uM after 48 hrs by SRB assay; type: functional
# [41] = Cytotoxicity against human SKOV3 cells assessed as growth level at 10 uM after 48 hrs by SRB assay; type: functional, SK-OV-3
# [42] = system: 786-0; assay: Cytotoxicity against human 786-0 cells assessed as growth level at 10 uM after 48 hrs by SRB assay; type: functional
# [43] = system: A498; assay: Cytotoxicity against human A498 cells assessed as growth level at 10 uM after 48 hrs by SRB assay; type: functional
# [44] = system: ACHN; assay: Cytotoxicity against human ACHN cells assessed as growth level at 10 uM after 48 hrs by SRB assay; type: functional
# [45] = Cytotoxicity against human Caki1 cells assessed as growth level at 10 uM after 48 hrs by SRB assay; type: functional, CAKI-1
# [46] = Cytotoxicity against human RXF393 cells assessed as growth level at 10 uM after 48 hrs by SRB assay; type: functional, RXF 393
# [47] = system: SN12C; assay: Cytotoxicity against human SN12C cells assessed as growth level at 10 uM after 48 hrs by SRB assay; type: functional
# [48] = Cytotoxicity against human TK10 cells assessed as growth level at 10 uM after 48 hrs by SRB assay; type: functional, TK-10
# [49] = Cytotoxicity against human UO31 cells assessed as growth level at 10 uM after 48 hrs by SRB assay; type: functional, UO-31
# [50] = Cytotoxicity against human PC3 cells assessed as growth level at 10 uM after 48 hrs by SRB assay; type: functional, PC-3
# [51] = Cytotoxicity against human DU145 cells assessed as growth level at 10 uM after 48 hrs by SRB assay; type: functional, DU-145
# [52] = system: MCF7; assay: Cytotoxicity against human MCF7 cells assessed as growth level at 10 uM after 48 hrs by SRB assay; type: functional
# [53] = system: MDA-MB-231; assay: Cytotoxicity against human MDA-MB-231 cells assessed as growth level at 10 uM after 48 hrs by SRB assay; type: functional
# [54] = Cytotoxicity against human Hs578T cells assessed as growth level at 10 uM after 48 hrs by SRB assay; type: functional, Hs-578T
# [55] = Cytotoxicity against human BT549 cells assessed as growth level at 10 uM after 48 hrs by SRB assay; type: functional, BT-549
# [56] = system: T47D; assay: Cytotoxicity against human T47D cells assessed as growth level at 10 uM after 48 hrs by SRB assay; type: functional
# [57] = system: MDA-MB-468; assay: Cytotoxicity against human MDA-MB-468 cells assessed as growth level at 10 uM after 48 hrs by SRB assay; type: functional
# [58] = system: CCRF-CEM; assay: Cytotoxicity against human CCRF-CEM cells assessed as growth level at 10 uM after 48 hrs by SRB assay; type: functional
# [59] = Cytotoxicity against human HL-60(TB) cells assessed as growth level at 10 uM after 48 hrs by SRB assay; type: functional
# [60] = system: K562; assay: Cytotoxicity against human K562 cells assessed as growth level at 10 uM after 48 hrs by SRB assay; type: functional
structure (smiles),measurement,setting,value
C=C1CC[C@@H]2[C@](C)(COC(C)=O)[C@H](OC(C)=O)CC[C@@]2(C)[C@@H]1CC(NC1CC1)C1=CCOC1=O (mixture of isomers),Activity,[1],87.21%
same,Activity,[2],70.32%
same,Activity,[3],73.84%
same,Activity,[4],82.92%
same,Activity,[5],86.69%
same,Activity,[6],102.23%
same,Activity,[7],83.7%
same,Activity,[8],106.3%
same,Activity,[9],98.94%
same,Activity,[10],98.57%
same,Activity,[11],105.35%
same,Activity,[12],78.4%
same,Activity,[13],106.86%
same,Activity,[14],102.97%
same,Activity,[15],88.19%
same,Activity,[16],93.63%
same,Activity,[17],100.7%
same,Activity,[18],90.49%
same,Activity,[19],115.37%
same,Activity,[20],93.53%
same,Activity,[21],97.25%
same,Activity,[22],95.4%
same,Activity,[23],100.97%
same,Activity,[24],90.39%
same,Activity,[25],96.2%
same,Activity,[26],94%
same,Activity,[27],89.64%
same,Activity,[28],93.67%
same,Activity,[29],96.33%
same,Activity,[30],104.35%
same,Activity,[31],107.72%
same,Activity,[32],96.5%
same,Activity,[33],100.57%
same,Activity,[34],84.5%
same,Activity,[35],96%
same,Activity,[36],96.85%
same,Activity,[37],101.59%
same,Activity,[38],110.21%
same,Activity,[39],105.48%
same,Activity,[40],98.35%
same,Activity,[41],102.92%
same,Activity,[42],107.45%
same,Activity,[43],102.06%
same,Activity,[44],98.37%
same,Activity,[45],98.25%
same,Activity,[46],116.59%
same,Activity,[47],101.14%
same,Activity,[48],98.64%
same,Activity,[49],82.44%
same,Activity,[50],77.06%
same,Activity,[51],98.78%
same,Activity,[52],85.36%
same,Activity,[53],100.99%
same,Activity,[54],110.62%
same,Activity,[55],86.41%
same,Activity,[56],79.56%
same,Activity,[57],91.77%
same,Activity,[58],95.35%
same,Activity,[59],102.95%
same,Activity,[60],74.16%
C=C1CC[C@@H]2[C@](C)(COC(C)=O)[C@H](OC(C)=O)CC[C@@]2(C)[C@@H]1CC(NCCCCCCCCCCCCCCCCCC)C1=CCOC1=O (mixture of isomers),Activity,[1],95.91%
same,Activity,[2],101.07%
same,Activity,[3],101.94%
same,Activity,[4],101.56%
same,Activity,[5],111.12%
same,Activity,[6],96.46%
same,Activity,[7],80.59%
same,Activity,[8],92.06%
same,Activity,[9],100.06%
same,Activity,[10],102.69%
same,Activity,[11],105.91%
same,Activity,[12],98.04%
same,Activity,[13],103.75%
same,Activity,[14],114%
same,Activity,[15],105.04%
same,Activity,[16],117.13%
same,Activity,[17],103.31%
same,Activity,[18],107.75%
same,Activity,[19],101.13%
same,Activity,[20],100.29%
same,Activity,[21],112.48%
same,Activity,[22],101.6%
same,Activity,[23],102.65%
same,Activity,[24],87.94%
same,Activity,[25],101.78%
same,Activity,[26],98.11%
same,Activity,[27],111.94%
same,Activity,[28],102.16%
same,Activity,[29],107%
same,Activity,[31],111.23%
same,Activity,[32],101.04%
same,Activity,[33],108.48%
same,Activity,[34],97.28%
same,Activity,[35],110.04%
same,Activity,[36],103.35%
same,Activity,[37],114.35%
same,Activity,[38],108.25%
same,Activity,[39],104.57%
same,Activity,[40],101.33%
same,Activity,[41],102.04%
same,Activity,[42],106.62%
same,Activity,[43],100.06%
same,Activity,[44],113.27%
same,Activity,[45],97.66%
same,Activity,[46],109.25%
same,Activity,[47],103.39%
same,Activity,[48],102.72%
same,Activity,[49],88.83%
same,Activity,[50],89.57%
same,Activity,[51],108.9%
same,Activity,[52],101.73%
same,Activity,[53],96.62%
same,Activity,[54],103.17%
same,Activity,[55],106.47%
same,Activity,[56],97.23%
same,Activity,[57],99.82%
same,Activity,[58],104.64%
same,Activity,[59],100.5%
same,Activity,[60],104.45%
